Laboratory results: patent publication EP1021178B1, “SELENOPHENE ANTI-TUMOR AGENTS” (Purdue Research Foundation, priority 1996, dated 1997)

What was measured:
Assay in all cases: NCI human tumor cell panel
HCC-2998 = assay type: cell-based; details: HCC 2998, read-out: Log10 LC50 (converted)
From the text: (§1) Considering the diversity of tumors in terms of cell type, morphology, growth rate and other cellular characteristics, the U.S. National Cancer Institute (NCI) has developed a "disease-oriented" approach to antitumor activity screening (M.R. Boyd, in "Principle of Practice of Oncology" J.T. Devita, S. Hellman, S.A. Rosenberg (Eds.) Vol. 3, PPO Update, No. 10, 1989). This in vitro prescreening system is based on the measurement of antitumor cytotoxicity against human tumor cell line panels consisting of approximately 60 cell lines of major human tumors (including leukemia and slower growing tumor cells such as lung, colon, breast, skin, kidney, etc.). The most important advantage of the new in vitro screening panels is the opportunity to identify compounds that are selectively more cytotoxic to cells of slowly growing solid tumors than to rapidly growing leukemia cells.
(§2) The cytotoxic activity of the present selenophene compounds have been measured utilizing two different assays or screens. The first screen measures the cytotoxicity against a panel of sixty different human tumor cell lines. This assay provides data regarding the general cytotoxicity of an individual compound. In particular this type of assay is useful in identifying compounds which have enhanced cytotoxic activity against slow growing tumors as compared to faster growing tumor cells such as leukemia tumor cell lines. The identification of such compounds is critical since previously identified antitumor agents have low cytotoxic activity against slower growing tumors. […] The specificity of a cytotoxic compound for tumor cell lines relative to normal cells is an important characteristic of an effective antitumor agent.
(§3) Antitumor cytotoxicity data generated from the National Cancer Institute human tumor cell panels can also be expressed in a graphic pattern (mean graph) to display differential cell growth inhibition (K.D. Paull, R.H. Shoemaker, L. Hodes, A. Monks, D.A. Scudiero, L. Rubinstein, J. Plowman and M.R. Boyd, J. Nail. Cancer Inst., 81, 1088, 1989.) In the mean graph, the arithmetic mean of the logarithm of the GI50 (50% growth inhibition), TGI (total growth inhibition) or LC50 (50% lethal concentration) values is used as an anchor point. […] The length of a bar is indicative of differential cytotoxicity against a specific type of tumor cells or tumor panels.
(§4) The antitumor cytotoxicity of the selenophene compounds tested in those in vitro assays was measured by a microculture assay using either a 3-(4,5-dimethylthiazol-2-yl)-2,5-diphenyltetrazolium bromide (MTT) or sulforhodamine B (SRB) based assay. [M.R. Boyd in "Principles and Practices of Oncology," V.T. DeVita, Jr.]. The experiments were conducted at Purdue University in 96-well microtiter plates and the cytotoxic effects of the selenophene compounds on those cells were measured by cell count using a Coulter Z.F. counter (Hialeah, FL). The results are expressed as GI50, the concentration of drug at which cell numbers are reduced to 50% of control cell culture [T.C.K. Chan, C.J. Chang, N.M. Koonchanok and R.L. Geahlen, Biochem. Biophys. Res. Commun., 193, 1152, (1993); S. Hellman and S.A. Rosenberg (Eds.), Vol. 3, PPO Updates, Number 10, (1989).]
(§5) This in vitro microculture assay has an advantage over in vivo assays in that results are obtained within a week as opposed to several months. The MTT assay is based on the production of a dark blue formazan product by dehydrogenase in the mitochondria of live tumor cells after exposure to drug for 6 days [M.C. Alley, D.A. Scudiero, A. Monks, M.L. Hursey, M.J. Czerwinski, D.L. Fine, B.J. Abbott, J.G. Mayo, R.H. Shoemaker and M.R. Boyd, Cancer Res., 48, 589, 1988]. Thus, only live cells are stained and can be measured at 570 nm. […]

A498 = assay type: cell-based; details: A498, read-out: Log10 LC50 (converted)
From the text: as §1, §2, §3, §4, §5

NCI-H460 = assay type: cell-based; details: NCI-H460, read-out: Log10 LC50 (converted)
From the text: as §1, §2, §3, §4, §5

HCT-15 = assay type: cell-based; details: HCT-15, read-out: Log10 LC50 (converted)
From the text: as §1, §2, §3, §4, §5

MDA-N = assay type: cell-based; details: read-out: Log10 LC50 (converted)
From the text: as §1, §2, §3, §4, §5

M14 = assay type: cell-based; details: M14, read-out: Log10 LC50 (converted)
From the text: as §1, §2, §3, §4, §5

KM12 = assay type: cell-based; details: KM12, read-out: Log10 LC50 (converted)
From the text: as §1, §2, §3, §4, §5

NCI-H322M = assay type: cell-based; details: read-out: Log10 LC50 (converted)
From the text: as §1, §2, §3, §4, §5

SR = assay type: cell-based; details: read-out: Log10 LC50 (converted)
From the text: as §1, §2, §3, §4, §5

ACHN = assay type: cell-based; details: read-out: Log10 LC50 (converted)
From the text: as §1, §2, §3, §4, §5

SF-295 = details: SF-295, read-out: Log10 LC50 (converted)
UO-31 = details: UO-31, read-out: Log10 LC50 (converted)
SK-MEL-5 = details: SK-MEL-5, read-out: Log10 LC50 (converted)
OVCAR-3 = details: OVCAR-3, read-out: Log10 LC50 (converted)
MDA-MB-435 = details: MDA-MB-435, read-out: Log10 LC50 (converted)
OVCAR-8 = details: OVCAR-8, read-out: Log10 LC50 (converted)
NCI-H23 = details: NCI-H23, read-out: Log10 LC50 (converted)
MALME-3M = details: read-out: Log10 LC50 (converted)
SNB-75 = details: SNB-75, read-out: Log10 LC50 (converted)
EKVX = details: for CC50: read-out: Log10 LC50 (converted)
TK-10 = details: for CC50: TK-10, read-out: Log10 LC50 (converted)

OCc1ccc(-c2ccc(-c3ccc(CO)[se]3)[se]2)[se]1
CC50 (HCC-2998): 12.6 µM
CC50 (A498): 7.24 µM
LC50 (concentration killing 50% of cells) (NCI-H460): 81.3 µM
CC50 (HCT-15): 55 µM
LC50 (50% lethal concentration) (MDA-N): 74.1 µM
CC50 (M14): 49 µM
CC50 (KM12): 50.1 µM
LC50 (concentration killing 50% of cells) (NCI-H322M): 52.5 µM
CC50 (SR): > 100 µM
CC50 (ACHN): > 100 µM
CC50 (SF-295): 70.8 µM
CC50 (UO-31): 38.9 µM
CC50 (SK-MEL-5): 6.31 µM
CC50 (OVCAR-3): 5.37 µM
CC50 (MDA-MB-435): 49 µM
CC50 (OVCAR-8): 72.4 µM
CC50 (NCI-H23): 95.5 µM
CC50 (MALME-3M): 56.2 µM
CC50 (SNB-75): > 100 µM
CC50 (EKVX): > 100 µM
CC50 (TK-10): 15.8 µM
IC (TGI) (TK-10; TK-10, read-out: Log10 TGI): 0.661 µM

OCc1ccc(-c2ccc(-c3ccc(CO)s3)[se]2)s1
CC50 (HCC-2998): > 100 µM
CC50 (A498): 0.158 µM
LC50 (concentration killing 50% of cells) (NCI-H460): > 100 µM
CC50 (HCT-15): > 100 µM
LC50 (50% lethal concentration) (MDA-N): > 100 µM
CC50 (M14): > 100 µM
CC50 (KM12): > 100 µM
LC50 (concentration killing 50% of cells) (NCI-H322M): > 100 µM
CC50 (SR): > 100 µM
CC50 (ACHN): > 100 µM
CC50 (SF-295): > 100 µM
CC50 (UO-31): > 100 µM
CC50 (SK-MEL-5): > 100 µM
CC50 (OVCAR-3): > 100 µM
CC50 (MDA-MB-435): > 100 µM
CC50 (OVCAR-8): > 100 µM
CC50 (NCI-H23): > 100 µM
CC50 (MALME-3M): > 100 µM
CC50 (EKVX): > 100 µM
CC50 (TK-10): > 100 µM

O=Cc1ccc(-c2ccc(-c3ccc(C=O)[se]3)s2)[se]1
CC50 (HCC-2998): > 100 µM
LC50 (concentration killing 50% of cells) (NCI-H460): > 100 µM
CC50 (HCT-15): > 100 µM
LC50 (50% lethal concentration) (MDA-N): > 100 µM
CC50 (M14): > 100 µM
CC50 (KM12): > 100 µM
LC50 (concentration killing 50% of cells) (NCI-H322M): > 100 µM
CC50 (SR): > 100 µM
CC50 (ACHN): > 100 µM
CC50 (SF-295): > 100 µM
CC50 (UO-31): > 100 µM
CC50 (SK-MEL-5): > 100 µM
CC50 (OVCAR-3): > 100 µM
CC50 (MDA-MB-435): > 100 µM
CC50 (OVCAR-8): > 100 µM
CC50 (NCI-H23): > 100 µM
CC50 (MALME-3M): > 100 µM
CC50 (SNB-75): > 100 µM
CC50 (EKVX): > 100 µM
IC (TGI) (EKVX; read-out: Log10 TGI): > 100 µM
CC50 (TK-10): > 100 µM

O=Cc1ccc(-c2ccc(-c3ccc[se]3)[se]2)[se]1
CC50 (HCC-2998): 38.9 µM
CC50 (A498): 6.31 µM
LC50 (concentration killing 50% of cells) (NCI-H460): 40.7 µM
CC50 (HCT-15): 79.4 µM
LC50 (50% lethal concentration) (MDA-N): 64.6 µM
CC50 (M14): 72.4 µM
CC50 (KM12): 45.7 µM
LC50 (concentration killing 50% of cells) (NCI-H322M): 60.3 µM
CC50 (ACHN): 46.8 µM
CC50 (SF-295): 53.7 µM
CC50 (UO-31): 53.7 µM
CC50 (SK-MEL-5): 37.2 µM
CC50 (OVCAR-3): 30.9 µM
CC50 (MDA-MB-435): > 100 µM
CC50 (OVCAR-8): 95.5 µM
CC50 (NCI-H23): 69.2 µM
CC50 (MALME-3M): 64.6 µM
CC50 (SNB-75): > 100 µM
CC50 (EKVX): > 100 µM
CC50 (TK-10): 25.1 µM

O=Cc1ccc(-c2ccc(-c3ccc(C=O)s3)[se]2)s1
CC50 (HCC-2998): 74.1 µM
CC50 (A498): 4.07 µM
LC50 (concentration killing 50% of cells) (NCI-H460): > 100 µM
CC50 (HCT-15): > 100 µM
LC50 (50% lethal concentration) (MDA-N): > 100 µM
CC50 (M14): > 100 µM
CC50 (KM12): > 100 µM
LC50 (concentration killing 50% of cells) (NCI-H322M): > 100 µM
CC50 (SR): > 100 µM
CC50 (ACHN): > 100 µM
CC50 (SF-295): > 100 µM
CC50 (SK-MEL-5): > 100 µM
CC50 (OVCAR-3): 4.07 µM
CC50 (MDA-MB-435): > 100 µM
CC50 (OVCAR-8): > 100 µM
CC50 (NCI-H23): > 100 µM
CC50 (MALME-3M): > 100 µM
CC50 (SNB-75): > 100 µM
CC50 (EKVX): > 100 µM
CC50 (TK-10): > 100 µM
